Test results from patent US9222928B2, “Biphenol ether compounds as markers for liquid hydrocarbons and other fuels and oils” (Dow Global Technologies LLC, priority 2011, dated 2015).

melting point: 33 to 35 °C
SMILES: CCCCCCCCCCCCOc1ccccc1-c1ccccc1OCCCCCCCCCCCC [BDD-BBPh, 2,2′-Bis(dodecyloxy)-1,1′-biphenyl]
